Tests used:
[1] = target: EZH2 (Homo sapiens, UniProt Q15910); test: EZH2 Assay (3H SAM methyl transfer, rPRC2, FlashPlate); format: biochemical; details: rPRC2, biotinylated oligonucleosomes, 0.2 μM 3H SAM, 2 nM EZH2
Summary of the method: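 rPRC2 (2 nM EZH2) was preincubated 20 min with compound (80 to 0.16 μM, 10 points), then reacted 60 min with 0.2 μM ³H-SAM, 0.2 μM biotinylated oligonucleosomes and 3.6 μM H3K27me3 peptide at pH 8.5. Methylated product was captured on SAV FlashPlates and counted, and IC50 came from a 4-parameter fit.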

[2] = target: Y641N EZH2 (Homo sapiens, UniProt Q15910, Y641N); test: Assay for Y641N EZH2 (as the EZH2 assay, H3K27Me2 oligonucleosomes as substrate); format: biochemical; details: Y641N EZH2 mutant, reconstituted H3K27Me2 oligonucleosomes as substrate
Summary of the method: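 rPRC2 (2 nM EZH2) with 0.2 μM reconstituted H3K27Me2 biotinylated oligonucleosomes, 3.6 μM H3K27me3 peptide, 0.2 μM ^3H SAM in Tris pH 8.5; compounds (80 to 0.16 μM, 2-fold) pre-incubated 20 min, reaction 60 min, SAH/EDTA quench. Tritiated product captured on streptavidin plates, scintillation counted; IC50 from 4-parameter fit.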

[3] = test system: H3K27me3 mark in Hela cells expressing wild type EZH2; test: H3K27me3 Alpha Hela Assay (AlphaLISA); format: cell-based; details: Homo sapiens, 72 hrs, read-out: H3K27me3_Alpha_HeLa (EC50)
Experimental: H3K27me3 Alpha Hela Assay (AlphaLISA). Ten different doses of each test compound (in a series of 3-fold dilutions) were plated in duplicate 384-well tissue culture treated plates (Catalog #781080; Greiner Bio One; Monroe, N.C.). Hela cells grown in culture were trypsinized and counted using a Countess® cell counter (Catalog # C10281; Life Technologies, Grand Island, N.Y.). Cell were diluted to 67,000 cells per mL in 10% DMEM (Catalog #10569-010 Life Technologies, Grand Island, N.Y.) and 15 μL (1,000 cells) were plated into each well using the Biotek MicroFlo™ Select Dispenser (BioTek Instruments, Inc. Vermont, USA),) of the 384-well plate. Plates were incubated at 37° C./5% CO2 for 72 hrs. One of the duplicate plates was processed for HeLa assay and the other for viability.
To the plate processed for AlphaLISA was added 5 μL per well Cell-Histone Lysis buffer (1×) (Catalog # AL009F1 Perkin Elmer; Waltham, Mass.) and the plate was incubated at RT for 30 minutes on a plate shaker with low speed (Model#4625-Q Thermo Scientific; Waltham, Mass.). Then, 10 μL per well Histone Extraction buffer (catalog # AL009F2; Perkin Elmer; Waltham, Mass.) was added and the plate further incubated at RT for 20 min on plate shaker with low speed. To each well was then added 10 μL per well of a 5× mix of anti-K27me3 acceptor beads plus Biotinylated anti-Histone H3 (C-ter) Antibody (diluted to 3 nM final) (Catalog #AL118 Perkin Elmer; Waltham, Mass.). Dilution of the acceptor beads and then anti-Histone H3 was with 1× Histone Detection buffer (Catalog # AL009F3 Perkin Elmer; Waltham, Mass.) which was produced diluted from the 10× stock provided. The plate was sealed with an aluminum plate sealer and incubated at 23° C. for 60 min. We then added 10 μL 5× solution of Streptavidin Donor beads (Catalog #6760002 Perkin Elmer; Waltham, Mass.) (20 μg/mL final in 1× Histone Detection Buffer), sealed the plate with Aluminum plate sealer and incubated at 23° C. for 30 min. The plates were then read using an EnVision-Alpha Reader (model #2104 Perkin Elmer; Waltham, Mass.).
Data from both assays was analyzed using Assay Assistant (Constellation Pharmaceuticals In-house product) and Activity Base (IDBS Ltd, Surrey, UK) template. Data files were imported to Assay Assistant and assay conditions were specified. A unique Analysis ID was created and the data files exported to Activity Base. An analysis template was created on Activity Base to measure dose-dependent inhibition of H3K27me3 mark and cell viability respectively. Readout of DMSO wells were used to normalize the data. Resulting curves were fitted using Activity base software Model 205 (IDBS Ltd, Surrey, UK). The data was checked for quality, validated and integrated in excel format using SARview (IDBS Ltd, Surrey, UK).

EZH2, sequence (Q15910 whole entry): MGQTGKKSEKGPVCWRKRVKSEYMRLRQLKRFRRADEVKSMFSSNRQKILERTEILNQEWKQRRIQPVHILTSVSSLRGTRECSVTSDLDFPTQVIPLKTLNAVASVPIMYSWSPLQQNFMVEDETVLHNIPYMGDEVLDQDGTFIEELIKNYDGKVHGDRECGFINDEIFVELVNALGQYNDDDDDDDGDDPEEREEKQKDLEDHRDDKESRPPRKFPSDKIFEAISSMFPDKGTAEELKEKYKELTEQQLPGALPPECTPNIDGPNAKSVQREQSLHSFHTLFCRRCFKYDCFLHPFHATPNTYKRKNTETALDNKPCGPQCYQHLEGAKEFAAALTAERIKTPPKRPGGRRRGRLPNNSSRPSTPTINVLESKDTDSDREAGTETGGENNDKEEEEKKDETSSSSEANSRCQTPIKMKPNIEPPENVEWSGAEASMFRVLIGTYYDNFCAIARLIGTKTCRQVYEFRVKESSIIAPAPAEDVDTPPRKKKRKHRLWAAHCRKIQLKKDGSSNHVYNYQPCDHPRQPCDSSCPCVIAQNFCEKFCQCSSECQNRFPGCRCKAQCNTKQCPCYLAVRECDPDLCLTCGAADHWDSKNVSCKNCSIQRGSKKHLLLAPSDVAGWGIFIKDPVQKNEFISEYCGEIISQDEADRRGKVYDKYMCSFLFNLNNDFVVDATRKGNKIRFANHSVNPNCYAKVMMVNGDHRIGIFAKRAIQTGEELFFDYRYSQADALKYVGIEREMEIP
EZH2, sequence (O75530 whole entry partner): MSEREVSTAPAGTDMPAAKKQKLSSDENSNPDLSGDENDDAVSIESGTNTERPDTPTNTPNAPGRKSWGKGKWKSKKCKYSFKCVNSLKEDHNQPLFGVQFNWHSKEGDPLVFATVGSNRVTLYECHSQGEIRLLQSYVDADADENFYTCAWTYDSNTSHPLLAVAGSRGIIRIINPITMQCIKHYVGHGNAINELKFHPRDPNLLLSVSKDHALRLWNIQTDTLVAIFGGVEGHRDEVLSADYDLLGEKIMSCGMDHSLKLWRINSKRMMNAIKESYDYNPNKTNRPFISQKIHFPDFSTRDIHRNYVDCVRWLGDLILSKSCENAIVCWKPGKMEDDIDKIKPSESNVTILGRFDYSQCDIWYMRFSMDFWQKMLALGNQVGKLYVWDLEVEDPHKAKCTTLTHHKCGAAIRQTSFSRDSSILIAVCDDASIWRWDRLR
EZH2, sequence (Q15022 whole entry partner): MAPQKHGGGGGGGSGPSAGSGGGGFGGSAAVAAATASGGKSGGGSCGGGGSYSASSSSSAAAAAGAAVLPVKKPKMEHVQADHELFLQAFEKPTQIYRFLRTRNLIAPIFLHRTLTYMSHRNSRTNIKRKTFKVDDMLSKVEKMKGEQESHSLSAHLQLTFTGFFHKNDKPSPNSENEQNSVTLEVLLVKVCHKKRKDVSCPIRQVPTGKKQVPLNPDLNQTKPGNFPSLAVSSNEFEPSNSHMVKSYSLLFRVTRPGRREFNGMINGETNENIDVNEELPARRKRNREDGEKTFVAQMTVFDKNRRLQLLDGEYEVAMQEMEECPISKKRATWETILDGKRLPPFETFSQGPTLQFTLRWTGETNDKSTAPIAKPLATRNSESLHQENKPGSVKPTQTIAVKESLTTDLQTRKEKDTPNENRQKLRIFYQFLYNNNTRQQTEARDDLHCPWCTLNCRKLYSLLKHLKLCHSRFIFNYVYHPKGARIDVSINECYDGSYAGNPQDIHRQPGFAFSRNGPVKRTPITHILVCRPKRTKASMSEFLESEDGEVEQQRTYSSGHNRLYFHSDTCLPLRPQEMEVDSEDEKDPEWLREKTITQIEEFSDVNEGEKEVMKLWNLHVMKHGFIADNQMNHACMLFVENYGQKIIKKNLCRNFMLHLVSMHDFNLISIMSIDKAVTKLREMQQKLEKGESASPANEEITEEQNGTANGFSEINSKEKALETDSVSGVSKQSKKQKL
Y641N EZH2, sequence (Q15910 whole entry Y641N): as the sequence (Q15910 whole entry) above, with Y641N counted along it
Y641N EZH2, sequence (O75530 whole entry partner): as the sequence (O75530 whole entry partner) above
Y641N EZH2, sequence (Q15022 whole entry partner): as the sequence (Q15022 whole entry partner) above

Compound	IC50 [1] [µM]	IC50 [2] [µM]	EC50 [3] [µM]
COc1cc(C)[nH]c(=O)c1CNC(=O)c1c(C)c(C(C)c2ccccc2)n2ncccc12 (single isomer, unassigned) [Compound 105, (R or S)-N-((4-methoxy-6-methyl-2-oxo-1,2-dihydropyridin-3-yl)methyl)-6-methyl-7-(1-phenylethyl)pyrrolo[1,2-b]pyridazine-5-carboxamide]	< 0.1	< 0.1	< 0.4
COc1cc(C)[nH]c(=O)c1CNC(=O)c1c(C)c(C(C)c2ccccc2)n2ncccc12 (racemic) [Compound 101, (±)-N-((4-methoxy-6-methyl-2-oxo-1,2-dihydropyridin-3-yl)methyl)-6-methyl-7-(1-phenylethyl)pyrrolo[1,2-b]pyridazine-5-carboxamide]	< 0.1	< 0.1	< 0.4
COc1cc(C)[nH]c(=O)c1CNC(=O)c1c(C)c(C(C)C2CCOCC2)n2ncccc12 (racemic) [Compound 116, (±)-N-((4-methoxy-6-methyl-2-oxo-1,2-dihydropyridin-3-yl)methyl)-6-methyl-7-(1-(tetrahydro-2H-pyran-4-yl)ethyl)pyrrolo[1,2-b]pyridazine-5-carboxamide]	< 0.1	< 0.1	< 0.4

Reference: US9745305B2, “Modulators of methyl modifying enzymes, compositions and uses thereof” (Constellation Pharmaceuticals, Inc., priority 2013, dated 2017)
